Measured values taken from patent US11000033B2, “Ketone or oxime compound, and herbicide” (NISSAN CHEMICAL CORPORATION, priority 2014, dated 2021).

How the values were obtained:
Format in all cases: in vivo
[1] = system: Echinochloa crus-galli var. crus-galli; experiment: Test Example 4: herbicidal effect by soil treatment (symbol H); conditions: for H: Echinochloa crus-galli var. crus-galli, herbicidal effect grade: 320 g/ha
Method in brief: (§1)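 Seeds were sown in sterilized diluvial soil, covered with about 1.5 cm of soil, and the soil surface was sprayed with a water-diluted emulsion of the compound at a predetermined rate. Plants grew in a greenhouse at 25° C. to 30° C.; effects were scored visually 3 weeks after application.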

[2] = system: Veronica persica; experiment: Test Example 5: herbicidal effect by foliage application, plastic box (symbol R); conditions: 320 g/ha, 3 weeks after application
Method in brief: (§2)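 Effect is rated 3 weeks after a foliar spray of water-diluted emulsion concentrate at a predetermined herbicide amount. Plants had grown 14 days in a 25° C. to 30° C. greenhouse from seed in sterilized diluvial soil.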

[3] = system: corn; experiment: Test Example 4: effect on crop by soil treatment (symbol c); conditions: for c: corn, effect grade on crop: 320 g/ha
Method in brief: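 Grown at 25° C. to 30° C. in a greenhouse, the crops came from seed sown spot-wise in sterilized diluvial soil under roughly 1.5 cm of covering soil.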

[4] = system: Lolium multiflorum Lam.; experiment: Test Example 5: herbicidal effect by foliage application, plastic box (symbol K); conditions: 320 g/ha, 3 weeks after application
Method in brief: as §2

[5] = system: Avena fatua; experiment: Test Example 5: herbicidal effect by foliage application, plastic box (symbol I); conditions: 320 g/ha, 3 weeks after application
Method in brief: as §2

[6] = system: Galium spurium; experiment: Test Example 5: herbicidal effect by foliage application, plastic box (symbol Q); conditions: 320 g/ha, 3 weeks after application
Method in brief: as §2

[7] = system: Abutilon theophrasti; experiment: Test Example 5: herbicidal effect by foliage application, plastic box (symbol M); conditions: 320 g/ha, 3 weeks after application
Method in brief: as §2

[8] = system: rapeseed; experiment: Test Example 4: effect on crop by soil treatment (symbol g); conditions: for g: rapeseed, effect grade on crop: 320 g/ha
Method in brief: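 Steps: fill box with sterilized diluvial soil; sow seed spot-like; cover with ~1.5 cm soil; grow in greenhouse (25° C. to 30° C.).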

[9] = system: Stellaria media; experiment: Test Example 5: herbicidal effect by foliage application, plastic box (symbol P); conditions: 320 g/ha, 3 weeks after application
Method in brief: as §2

[10] = system: Amaranthus retroflexus; experiment: Test Example 5: herbicidal effect by foliage application, plastic box (symbol N); conditions: 320 g/ha, 3 weeks after application
Method in brief: as §2

[11] = system: Scirpus juncoides; experiment: Test Example 2: herbicidal activity, application during weed generation in submerged conditions (symbol B); conditions: Table 23; application herbicide amount 320 g/ha; grade 0-5 by criteria of Test Example 1
Method in brief: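 Flooded-soil post-emergence test: emulsion of compound, water-diluted to target rate, applied to paddy water surface at 1–2 leaf stage of mixed-sown weeds (alluvial soil, 4 cm water, 25–30° C. greenhouse); visual rating 3 weeks after application.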

[12] = system: Echinochloa oryzacola Vasing.; experiment: Test Example 1: herbicidal activity, application before weed generation in submerged conditions (symbol A); conditions: application herbicide amount 320 g/ha
Method in brief: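 Paddy pre-emergence test. Formulated emulsion, water-diluted to a predetermined rate, is applied to floodwater on sowing day; rice transplanted at 2.5 leaves. Effect read at 3 weeks on a 0–5 herbicidal-ratio scale.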

[13] = system: Cyperus difformis; experiment: Test Example 3: herbicidal effect by foliage application, Wagner pot (symbol E); conditions: application herbicide amount 320 g/ha
Method in brief: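 Rating at 3 weeks post-spray, by defined criteria. Treatment: emulsion diluted with water to a predetermined amount, applied evenly to foliage of 14-day-old plants raised in alluvial soil flooded 0.1–0.5 cm deep at 25–30 °C, rice co-sown.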

[14] = system: Apera spica-venti; experiment: Test Example 5: herbicidal effect by foliage application, plastic box (symbol L); conditions: 320 g/ha, 3 weeks after application
Method in brief: as §2

[15] = system: Amaranthus retroflexus; experiment: Test Example 4: herbicidal effect by soil treatment (symbol N); conditions: for N: Amaranthus retroflexus, herbicidal effect grade: 320 g/ha
Method in brief: as §1

[16] = system: Galium spurium; experiment: Test Example 4: herbicidal effect by soil treatment (symbol Q); conditions: for Q: Galium spurium, herbicidal effect grade: 320 g/ha
Method in brief: as §1

[17] = application herbicide amount 320 g/ha

Compound | H: Echinochloa crus-galli var. crus-galli, herbicidal effect grade [1] | R: Veronica persica, herbicidal effect (criteria 0-5) [2] | c: corn, effect grade on crop [3] | K: Lolium multiflorum Lam., herbicidal effect (criteria 0-5) [4] | I: Avena fatua, herbicidal effect (criteria 0-5) [5] | Q: Galium spurium, herbicidal effect (criteria 0-5) [6] | M: Abutilon theophrasti, herbicidal effect (criteria 0-5) [7] | g: rapeseed, effect grade on crop [8] | P: Stellaria media, herbicidal effect (criteria 0-5) [9] | N: Amaranthus retroflexus, herbicidal effect (criteria 0-5) [10] | Herbicidal effect grade, B: Scirpus juncoides [11] | Herbicidal effect grade, A: Echinochloa oryzacola Vasing. [12] | herbicidal effect on E, grade 0-5 [13] | L: Apera spica-venti, herbicidal effect (criteria 0-5) [14] | N: Amaranthus retroflexus, herbicidal effect grade [15] | Q: Galium spurium, herbicidal effect grade [16] | further results
CON=C(C)CON=C(C)CC1CC(O)=C(c2c(C)cc(C)cc2C)C1=O (stereo not shown) [1-105] | 5 (Herbicidal ratio of 90% or more (almost completely withered)) | 3 (Herbicidal ratio of 40% or higher and lower than 70%) | 1 (Herbicidal ratio of 5% or higher and lower than 20%) | 5 (Herbicidal ratio of 90% or more (almost completely withered)) | 5 (Herbicidal ratio of 90% or more (almost completely withered)) | 2 (Herbicidal ratio of 20% or higher and lower than 40%) | 1 (Herbicidal ratio of 5% or higher and lower than 20%) | 3 (Herbicidal ratio of 40% or higher and lower than 70%) | 1 (Herbicidal ratio of 5% or higher and lower than 20%) | 0 (Herbicidal ratio of 5% or lower (almost no effect)) | 5 (Herbicidal ratio of 90% or more (almost completely withered)) | 5 (Herbicidal ratio of 90% or more (almost completely withered)) | 5 (Herbicidal ratio of 90% or more (almost completely withered)) | 5 (Herbicidal ratio of 90% or more (almost completely withered)) | 4 (Herbicidal ratio of 70% or higher and lower than 90%) | 0 (Herbicidal ratio of 5% or lower (almost no effect)) | 
CON=C(C)CC1(C)CC(O)=C(c2c(C)cc(C)cc2C)C1=O (mixture of isomers) [11-002] |  |  |  |  |  |  |  |  |  |  | 0 (Herbicidal ratio of 5% or lower (almost no effect)) |  |  |  |  |  | Herbicidal effect grade, H: Echinochloa crus-galli var. crus-galli [1, 17]: 3 (Herbicidal ratio of 40% or higher and lower than 70%); R: Veronica persica, herbicidal effect grade [2]: 0 (Herbicidal ratio of 5% or lower (almost no effect)); Effect on crop grade, c: corn [3, 17]: 1 (Herbicidal ratio of 5% or higher and lower than 20%); K: Lolium multiflorum Lam., herbicidal effect grade [4]: 5 (Herbicidal ratio of 90% or more (almost completely withered)); I: Avena fatua, herbicidal effect grade [5]: 5 (Herbicidal ratio of 90% or more (almost completely withered)); Q: Galium spurium, herbicidal effect grade [6]: 0 (Herbicidal ratio of 5% or lower (almost no effect)); M: Abutilon theophrasti, herbicidal effect grade [7]: 0 (Herbicidal ratio of 5% or lower (almost no effect)); Effect on crop grade, g: rapeseed [8, 17]: 2 (Herbicidal ratio of 20% or higher and lower than 40%); P: Stellaria media, herbicidal effect grade [9]: 0 (Herbicidal ratio of 5% or lower (almost no effect)); N: Amaranthus retroflexus, herbicidal effect grade [10]: 0 (Herbicidal ratio of 5% or lower (almost no effect)); A (Echinochloa oryzacola Vasing.) herbicidal effect grade [12]: 2 (Herbicidal ratio of 20% or higher and lower than 40%); E herbicidal effect grade ([13]; Table 24): 4 (Herbicidal ratio of 70% or higher and lower than 90%); L: Apera spica-venti, herbicidal effect grade [14]: 5 (Herbicidal ratio of 90% or more (almost completely withered)); Herbicidal effect grade, N: Amaranthus retroflexus [15, 17]: 0 (Herbicidal ratio of 5% or lower (almost no effect)); Herbicidal effect grade, Q: Galium spurium [16, 17]: 0 (Herbicidal ratio of 5% or lower (almost no effect))
CC(CC1CC(O)=C(c2c(C)cc(C)cc2C)C1=O)=NOC1CCCC1 (stereo not shown) [1-106] | 5 (Herbicidal ratio of 90% or more (almost completely withered)) | 1 (Herbicidal ratio of 5% or higher and lower than 20%) | 1 (Herbicidal ratio of 5% or higher and lower than 20%) | 5 (Herbicidal ratio of 90% or more (almost completely withered)) | 5 (Herbicidal ratio of 90% or more (almost completely withered)) | 0 (Herbicidal ratio of 5% or lower (almost no effect)) | 1 (Herbicidal ratio of 5% or higher and lower than 20%) | 3 (Herbicidal ratio of 40% or higher and lower than 70%) | 2 (Herbicidal ratio of 20% or higher and lower than 40%) | 5 (Herbicidal ratio of 90% or more (almost completely withered)) | 0 (Herbicidal ratio of 5% or lower (almost no effect)) | 5 (Herbicidal ratio of 90% or more (almost completely withered)) | 5 (Herbicidal ratio of 90% or more (almost completely withered)) | 5 (Herbicidal ratio of 90% or more (almost completely withered)) | 0 (Herbicidal ratio of 5% or lower (almost no effect)) | 0 (Herbicidal ratio of 5% or lower (almost no effect)) | 
C=C(C)CN(CC)C(=O)OC1=C(c2c(C)cc(C)cc2C)C(=O)C(CC(C)=NOC)C1 (stereo not shown) [1-130] | 0 (Herbicidal ratio of 5% or lower (almost no effect)) | 0 (Herbicidal ratio of 5% or lower (almost no effect)) | 0 (Herbicidal ratio of 5% or lower (almost no effect)) | 5 (Herbicidal ratio of 90% or more (almost completely withered)) | 5 (Herbicidal ratio of 90% or more (almost completely withered)) | 0 (Herbicidal ratio of 5% or lower (almost no effect)) | 0 (Herbicidal ratio of 5% or lower (almost no effect)) | 0 (Herbicidal ratio of 5% or lower (almost no effect)) | 0 (Herbicidal ratio of 5% or lower (almost no effect)) | 0 (Herbicidal ratio of 5% or lower (almost no effect)) | 0 (Herbicidal ratio of 5% or lower (almost no effect)) | 3 (Herbicidal ratio of 40% or higher and lower than 70%) | 4 (Herbicidal ratio of 70% or higher and lower than 90%) | 5 (Herbicidal ratio of 90% or more (almost completely withered)) | 0 (Herbicidal ratio of 5% or lower (almost no effect)) | 0 (Herbicidal ratio of 5% or lower (almost no effect)) | 
